Assay results published in patent US11618770B2, “MUC1-derived peptide, and pharmaceutical composition for treatment or prevention of cancer, immunity-inducing agent and method for manufacturing antigen presenting cell using same” (NEC CORPORATION, priority 2015, dated 2023).
Ends that are not written are not given here.

Columns and labels:
[1] = molecular target: T1, HLA-A*02:01 molecule (Homo sapiens, UniProt P04439, D140Y/D185E/D98H/E176V/E277Q/G131W/G231S/I119V/I121R/I166T/I218V/L300P/L318F/N151K/N90K/P208A/P217A/Q86G/Q94H/R138H/R169H/T345S); assay: Experiment of binding peptide to HLA-A*02:01 molecule (T2 cells, antibody BB7.2, flow cytometer); conditions: for Kd: given as negative numbers (log of Kd value), T2 cells, 37° C. 4 hours
T1 construct: a cell line T2 (purchased from ATCC) expressing the HLA-A*02:01 molecule; host or cells: T2 cells
Method: Experiment of Binding Peptide to HLA-A*02:01 Molecule
The ability of each of the peptides to bind to an HLA-A*02:01 molecule, which is an HLA-A*02:01 gene product, was measured using a cell line T2 (purchased from ATCC) expressing the HLA-A*02:01 molecule.
The T2 cells and purified β2m were added to a series of serial dilutions of the peptide whose binding ability would be measured, and then incubation was carried out at 37° C. for 4 hours. The HLA-A*02:01 molecule that had increased in an expression amount in a peptide-concentration-dependent manner up to this point was stained using a fluorescently labeled monoclonal antibody BB7.2, which is specific to an association type.
(§1) Thereafter, the amount of fluorescence per cell was measured using a flow cytometer, and a dissociation constant Kd value was calculated using a method that was reported in a paper (Udaka et al., Immunogenetics, 51, 816-828, 2000) by the inventors of the present invention.

[2] = molecular target: T2, HLA-A*02:06 molecule (Homo sapiens, UniProt P04439, D140Y/D185E/D98H/E176V/E277Q/F33Y/G131W/G231S/I119V/I121R/I166T/I218V/L300P/L318F/N151K/N90K/P208A/P217A/Q86G/Q94H/R138H/R169H/T345S); assay: Experiment of binding peptide to HLA-A*02:06 molecule (RA2.6 cells, antibody BB7.2, flow cytometer); conditions: for Kd: given as negative numbers (log of Kd value), RA2.6 cells
T2 construct: expressed in transfected cells; host or cells: RA2.6 cells (mouse TAP-deficient RMAS cells carrying HLA-A*02:06 cDNA)
Method: Experiment of Binding Peptide to HLA-A*02:06 Molecule
The ability of each of the peptides to bind to an HLA-A*02:06 molecule, which is an HLA-A*02:06 gene product, was measured using RA2.6 cells (cell line that had been newly produced in Kochi University) produced by introducing the cDNA of the HLA-A*02:06 gene into a mouse TAP (transporter associated with antigen processing)-deficient cell line RMAS.
First, RA2.6 cells were cultured at 26° C. overnight.
Thereafter, the cells were cultured at 35° C. for 4 hours. […] A fluorescently labeled monoclonal antibody BB7.2, which specifically recognizes a peptide-binding HLA-A*02:06 molecule, was added thereto, incubation was carried out on ice for 20 minutes, and thus the cells were stained.
as §1

[3] = molecular target: HLA-A*24:02 molecule (Homo sapiens, UniProt P04439, D101N/D140Y/D185E/E176V/E190D/F33S/G103R/G107R/I119L/I121M/I306V/K335N/L105A/L180Q/L300P/N151K/N90K/Q86E/Q94H/R106L/R138H/R89G/T104I/T345S/V100E/W191G/Y123F); assay: Experiment of binding peptide to HLA-A*24:02 molecule (C1R-A24 cells, antibody 17A12, FACS); conditions: for Kd: given as negative numbers (log of Kd value), C1R-A24 cells, on ice 4 hours
Method: Experiment of Binding Peptide to HLA-A*24:02 Molecule
The ability of each of the peptides to bind to an HLA-A*24:02 molecule, which is an HLA-A*24:02 gene product, was measured using C1R-A24 cells expressing the HLA-A*24:02 molecule (cells prepared by Professor Masafumi TAKIGUCHI, Kumamoto University being supplied with permission by Assistant Professor Masaki YASUKAWA, Ehime University).
First, C1R-A24 cells were exposed to acidic conditions at a pH of 3.3 for 30 seconds, and thus an endogenous peptide that originally binds to the HLA-A*24:02 molecule, and a light chain β2m, which is associated with HLA class-I molecules in common, were dissociated and removed. After neutralization, a purified β2m was added to C1R-A24 cells, and the obtained product was added to a series of dilutions of the peptide and incubated on ice for 4 hours. Staining was carried out using a fluorescently labeled monoclonal antibody 17A12, which recognizes association (MHC-pep) of the three members, that is, a HLA-A*24:02 molecule, a peptide, and β2m, which had reassociated during the incubation.
Thereafter, the MHC-pep count per C1R-A24 cell (proportional to the intensity of fluorescence of the above-mentioned fluorescent antibody) was quantitatively measured using a fluorescence-activated cell sorter FACScan (Becton-Dickinson). A binding-dissociation constant Kd value between the HLA-A*24:02 molecule and the peptide was calculated from the average intensity of fluorescence per cell using a method that was reported in a paper (Udaka et al., Immunogenetics, 51, 816-828, 2000) by the inventors of the present invention.

[4] = test system: CD8T cells; assay: Peptide immunity induction testing (peptide-stimulated dendritic cells cocultured with CD8T cells, IFN-γ ELISA); format: cell-based, human
Method: Peptide Immunity Induction Testing
Of the peripheral blood monocytes obtained through pheresis from a patient (0) that had undergone a dendritic cell/CTL therapy against MUC1, a cell fraction that adhered to a culture flask was cultured in an AIM-CM culture medium (manufactured by Gibco) at 37° C. for 10 days. During the culture, 15 μl of IL-4 and 30 μl of a granulocyte monocyte colony-stimulating factor (GM-CSF) added to the culture medium on Day 0 and Day 3, and 15 μl of IL-4, 30 μl of GM-CSF, and 75 μl of a tumor necrosis factor (TFN)-α were added thereto on Day 5.
Induced dendritic cells were collected in a new AIM-CM culture medium, and the peptide of the present invention (Sequence ID Nos. 1 to 12) was added thereto to a concentration of 20 μg/ml. […]
CD8T cells were isolated from the culture medium using a CD8 negative selection kit (manufactured by Miltenyi), and the number of cells was counted. […]
The culture supernatant of the coculture of the T cells and the dendritic cells pulsed with the above-mentioned peptides on Day 7 was diluted to four steps, that is, ×1, ×5, ×25, and ×125, and the dilution step within a measurement limit was identified using Human IFN-γ ELISA MAX Deluxe Set (manufactured by BioLegend). Thereafter, at the identified dilution step, each sample was measured three times. […]

Sequence | Kd [1] [µM] | Kd [2] [µM] | Kd [3] [µM] | Binding to HLA-A*02:01 molecule (in words) [1] | Binding to HLA-A*02:06 molecule (in words) [2] | Binding to HLA-A*24:02 molecule (in words) [3] | Immunogenicity (in words) [4]
AFREGTINV [Seq. ID No. 4, AFREGTINV] | > 1000 | > 1000 | 1.47 | – | – | – | –
FSAQSGAGV [Seq. ID No. 12, FSAQSGAGV] | 18.2 | 2.18 | > 1000 | – | – | – | –
GVPGWGIAL [Seq. ID No. 3, GVPGWGIAL] | 28.3 | 1.73 | 1.18 | – | – | – | –
HHSDTPTTL [Seq. ID No. 7, HHSDTPTTL] | > 1000 | > 1000 | 1.36 | – | – | – | –
LQRDISEMF [Seq. ID No. 6, LQRDISEMF] | > 1000 | 54.9 | 0.226 | – | – | – | –
SFFFLSFHI [Seq. ID No. 8, SFFFLSFHI] | > 100 | 105 | 0.0861 | – | – | – | –
SVPVTRPAL [Seq. ID No. 2, SVPVTRPAL] | 125 | 2.36 | 0.0573 | – | – | – | –
TLAFREGTI [Seq. ID No. 9, TLAFREGTI] | > 1000 | 820 | 1.06 | – | – | – | –

The next sequences have a lower Kd [1] than those just listed; values first:

Kd [1] [µM] | Kd [2] [µM] | Kd [3] [µM] | Binding to HLA-A*02:01 molecule (in words) [1] | Binding to HLA-A*02:06 molecule (in words) [2] | Binding to HLA-A*24:02 molecule (in words) [3] | Sequence | Immunogenicity (in words) [4]
15.4 | 150 | 0.711 | – | – | – | AASRYNLTI [Seq. ID No. 5, AASRYNLTI] | –
7.55 | 6.19 | 6.74 | strongly binds | strongly binds | strongly binds | STGVSFFFL [Seq. ID No. 10, STGVSFFFL] | high immunogenicity
4.07 | 41.1 | 0.0845 | – | – | – | FLGLSNIKF [Seq. ID No. 1, FLGLSNIKF] | –
0.366 | 0.448 | > 1000 | – | – | – | GQDVTSVPV [Seq. ID No. 11, GQDVTSVPV] | –
